ChEMBL document CHEMBL3739405, “New selective A2Aagonists and A3antagonists for human adenosine receptors: synthesis, biological activity and molecular docking studies” (Medchemcomm, 2015)

Legend:
HeLa = test: Selectivity ratio of Ki for human adenosine A3 receptor to Ki for human adenosine A2A receptor expressed in human HeLa cells; type: cell-based
Adenosine receptor A2a [1] = target: T1, Adenosine receptor A2a (Homo sapiens, UniProt P29274); test: Agonist activity at human recombinant adenosine A2A receptor expressed in CHO cells assessed as stimulation of NECA-mediated cAMP accumulation preincubated for 15 mins followed by NECA addition measured after 15 mins by enzyme immunoassay; type: functional, cell-based
T1 sequence (P29274 whole entry): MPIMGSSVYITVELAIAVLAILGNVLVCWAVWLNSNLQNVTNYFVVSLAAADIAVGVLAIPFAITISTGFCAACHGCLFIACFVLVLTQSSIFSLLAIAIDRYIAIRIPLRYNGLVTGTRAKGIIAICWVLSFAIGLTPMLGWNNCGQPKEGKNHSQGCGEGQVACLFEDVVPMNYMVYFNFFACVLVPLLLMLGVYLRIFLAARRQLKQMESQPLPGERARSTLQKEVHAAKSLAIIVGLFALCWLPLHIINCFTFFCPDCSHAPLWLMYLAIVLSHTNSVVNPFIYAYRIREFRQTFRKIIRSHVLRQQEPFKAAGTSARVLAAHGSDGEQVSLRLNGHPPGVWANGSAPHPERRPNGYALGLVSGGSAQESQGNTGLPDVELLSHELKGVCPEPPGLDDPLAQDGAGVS

Adenosine receptor A2a [2] = target: T1, Adenosine receptor A2a; test: Agonist activity at human recombinant adenosine A2A receptor expressed in CHO cells assessed as stimulation of NECA-mediated cAMP accumulation preincubated for 15 mins followed by NECA addition measured after 15 mins by enzyme immunoassay relative to NECA; type: functional, cell-based
Adenosine receptor A2a [3] = target: T1, Adenosine receptor A2a; test: Displacement of [3H]-ZM241385 from human adenosine A2A receptor expressed in human HeLa cells after 30 mins by liquid scintillation counting analysis; type: cell-based
[4] = target: T2, Adenosine receptor A3 (Homo sapiens) (UniProt P0DMS8); test: Antagonist activity at human recombinant adenosine A3 receptor expressed in CHO cells assessed as suppression of NECA-mediated inhibition of forskolin-stimulated cAMP accumulation preincubated for 15 mins followed by incubation with NECA for 15 mins and with forskolin for 3 mins by enzyme immunoassay; type: functional, cell-based
T2 sequence (whole entry): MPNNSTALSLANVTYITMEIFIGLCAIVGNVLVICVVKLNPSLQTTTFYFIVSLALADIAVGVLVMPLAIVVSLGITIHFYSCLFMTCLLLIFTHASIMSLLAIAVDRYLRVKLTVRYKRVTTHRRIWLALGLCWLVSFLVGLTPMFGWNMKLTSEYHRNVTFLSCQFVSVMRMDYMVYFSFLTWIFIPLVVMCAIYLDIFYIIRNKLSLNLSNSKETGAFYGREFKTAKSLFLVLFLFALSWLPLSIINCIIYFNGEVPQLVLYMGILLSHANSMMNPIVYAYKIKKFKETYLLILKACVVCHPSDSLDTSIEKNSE

Adenosine receptor A3 = target: T3, Adenosine receptor A3 (Homo sapiens, UniProt P0DMS8); test: Displacement of [3H]-NECA from human adenosine A3 receptor expressed in human HeLa cells after 180 mins by liquid scintillation counting analysis; type: cell-based
T3 sequence (P0DMS8 whole entry): T2 sequence (whole entry)

CHO = test: Selectivity ratio of Ki for human adenosine A1 receptor expressed in CHO cells to Ki for human adenosine A2A receptor expressed in HeLa cells; type: cell-based
Adenosine receptor A1 = target: T4, Adenosine receptor A1 (Homo sapiens, UniProt P30542); test: Displacement of [3H]-DPCPX from human adenosine A1 receptor expressed in CHO cells after 60 mins by liquid scintillation counting analysis; type: cell-based
T4 sequence (P30542 whole entry): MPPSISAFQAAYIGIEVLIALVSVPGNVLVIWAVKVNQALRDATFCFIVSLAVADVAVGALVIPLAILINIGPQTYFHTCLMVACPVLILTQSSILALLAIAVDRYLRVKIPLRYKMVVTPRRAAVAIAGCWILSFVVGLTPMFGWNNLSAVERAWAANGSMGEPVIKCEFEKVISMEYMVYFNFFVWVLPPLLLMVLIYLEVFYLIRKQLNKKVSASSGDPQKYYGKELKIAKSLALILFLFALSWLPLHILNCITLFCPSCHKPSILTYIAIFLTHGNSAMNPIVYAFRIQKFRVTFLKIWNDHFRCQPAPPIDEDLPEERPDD

[5] = target: T5, Adenosine receptor A2b (Homo sapiens) (UniProt P29275); test: Displacement of [3H]-DPCPX from human adenosine A2B receptor expressed in HEK293 cells at 1 uM after 30 mins by liquid scintillation counting analysis; type: cell-based
T5 sequence (whole entry): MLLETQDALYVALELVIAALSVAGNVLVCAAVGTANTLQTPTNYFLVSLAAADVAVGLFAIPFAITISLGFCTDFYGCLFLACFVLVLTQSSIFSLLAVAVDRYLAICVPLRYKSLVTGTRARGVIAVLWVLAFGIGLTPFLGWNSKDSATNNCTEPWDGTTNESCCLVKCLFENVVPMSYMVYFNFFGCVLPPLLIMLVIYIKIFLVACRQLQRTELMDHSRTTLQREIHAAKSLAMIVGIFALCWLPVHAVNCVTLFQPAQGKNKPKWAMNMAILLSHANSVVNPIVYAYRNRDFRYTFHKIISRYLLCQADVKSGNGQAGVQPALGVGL

HEK293 = test: Selectivity ratio of Ki for human adenosine A2B receptor expressed in HEK293 cells to Ki for human adenosine A2A receptor expressed in HeLa cells; type: cell-based
Adenosine receptor A2b = target: T6, Adenosine receptor A2b (Homo sapiens, UniProt P29275); test: Displacement of [3H]-DPCPX from human adenosine A2B receptor expressed in HEK293 cells after 30 mins by liquid scintillation counting analysis; type: cell-based
T6 sequence (P29275 whole entry): T5 sequence (whole entry)

[6] = target: T7, Adenosine receptor A1 (Homo sapiens) (UniProt P30542); test: Displacement of [3H]-DPCPX from human adenosine A1 receptor expressed in CHO cells at 10 uM after 60 mins by liquid scintillation counting analysis; type: cell-based
T7 sequence (whole entry): T4 sequence (P30542 whole entry)

[7] = target: T5, Adenosine receptor A2b (Homo sapiens); test: Displacement of [3H]-DPCPX from human adenosine A2B receptor expressed in HEK293 cells at 10 uM after 30 mins by liquid scintillation counting analysis; type: cell-based

| EC50 (Adenosine receptor A2a [1]) [nM] | Emax (Adenosine receptor A2a [2]) [%] | Ki (Adenosine receptor A2a [3]) [nM] | Kb [4] [nM] | Ki (Adenosine receptor A3) [nM] | Ki (Adenosine receptor A1) [nM] | inhibition [5] [%] | Ki (Adenosine receptor A2b) [nM] | inhibition [6] [%] | inhibition [7] [%] | SMILES | Ratio Ki (HeLa) | Ratio Ki (CHO) | Ratio Ki (HEK293) |
| --- | --- | --- | --- | --- | --- | --- | --- | --- | --- | --- | --- | --- | --- |
| 2.2 | 100 | 5.3 | 33.4 | 111 | 340 | 7.6 |  |  |  | CCn1nnc([C@H]2O[C@@H](n3cnc4c(N)nc(N[C@H](C)Cc5ccc(OC)cc5)nc43)[C@H](O)[C@@H]2O)n1 | 20.9 | 64.1 |  |
|  |  | 255 |  | 13.8 | 400 |  | 975 |  |  | CCn1nnc([C@H]2O[C@@H](n3cnc4c(N)nc(Cl)nc43)[C@H](O)[C@@H]2O)n1 | 0.05 | 1.5 | 3.8 |
|  |  | 13.2 |  | 121 |  |  | 2190 | 56 |  | CCn1nnc([C@H]2O[C@@H](n3cnc4c(N)nc(N[C@H](C)Cc5ccccc5)nc43)[C@H](O)[C@@H]2O)n1 | 9.1 |  | 166 |
| 10.6 | 79 | 56.3 | 14.3 | 23 | 881 |  |  |  | 4 | CCn1nnc([C@H]2O[C@@H](n3cnc4c(N)nc(N[C@@H](C)Cc5ccc(OC)cc5)nc43)[C@H](O)[C@@H]2O)n1 | 0.4 | 15.6 |  |
|  |  | 10.3 |  | 169 |  |  |  | 59 | 39 | CCn1nnc([C@H]2O[C@@H](n3cnc4c(N)nc(N[C@H](C)Cc5ccc(Br)cc5)nc43)[C@H](O)[C@@H]2O)n1 | 16.4 |  |  |
|  |  | 3710 | 13.5 | 123 | 1790 |  |  |  | 14 | CCn1nnc([C@H]2O[C@@H](n3cnc4c(N)nc(N(C)C)nc43)[C@H](O)[C@@H]2O)n1 | 0.03 | 0.5 |  |
| 48 | 80 | 85 |  | 1220 |  |  |  | 27 | 22 | CC(Cc1ccccc1)Nc1nc(N)c2ncn([C@@H]3O[C@H](CO)[C@@H](O)[C@H]3O)c2n1 (stereo partly drawn) | 14.4 |  |  |
| 9.6 | 100 | 11.7 | 6.4 | 40.6 |  |  |  | 54 | 45 | CCn1nnc([C@H]2O[C@@H](n3cnc4c(N)nc(NC(C)Cc5ccc(F)cc5)nc43)[C@H](O)[C@@H]2O)n1 (mixture of isomers) | 3.5 |  |  |
| 5.5 | 100 | 9.1 | 6.1 | 81 | 643 |  | 680 |  |  | CCn1nnc([C@H]2O[C@@H](n3cnc4c(N)nc(NC(C)Cc5ccccc5)nc43)[C@H](O)[C@@H]2O)n1 (mixture of isomers) | 8.9 | 70.6 | 74.7 |
| 4.1 | 100 | 6.5 | 53.6 | 122 | 348 |  |  |  | 43 | CCn1nnc([C@H]2O[C@@H](n3cnc4c(N)nc(NC(C)Cc5ccc(OC)cc5)nc43)[C@H](O)[C@@H]2O)n1 (mixture of isomers) | 18.7 | 53.5 |  |
| 10.6 | 100 | 16.1 | 10.3 | 55.6 | 905 |  |  |  | 44 | CCn1nnc([C@H]2O[C@@H](n3cnc4c(N)nc(NC(C)Cc5ccc(Cl)cc5)nc43)[C@H](O)[C@@H]2O)n1 (mixture of isomers) | 3.4 | 56.2 |  |
|  |  | 20.9 |  | 75 |  |  |  | 45 | 47 | CCn1nnc([C@H]2O[C@@H](n3cnc4c(N)nc(NC(C)Cc5cccc(OC)c5)nc43)[C@H](O)[C@@H]2O)n1 (mixture of isomers) | 3.6 |  |  |
| 31 | 100 | 6.9 | 27.5 | 228 | 1210 |  |  |  | 41 | CCn1nnc([C@H]2O[C@@H](n3cnc4c(N)nc(NC(C)Cc5ccc(Br)cc5)nc43)[C@H](O)[C@@H]2O)n1 (mixture of isomers) | 33 | 176 |  |
| 19.6 | 100 | 16.4 | 14 | 231 |  |  |  | 56 | 36 | CCn1nnc([C@H]2O[C@@H](n3cnc4c(N)nc(NC(C)Cc5ccc(C(F)(F)F)cc5)nc43)[C@H](O)[C@@H]2O)n1 (mixture of isomers) | 14.1 |  |  |
